{"source": "patent US11634381B2", "about": "“RUNX2 transcription factor inhibitors and uses thereof” (University of Maryland, Baltimore, priority 2015, dated 2023)", "key": {"RUNX2 [1]": {"test_system": "RUNX2", "test": "Western blot of RUNX2, RUNX1, CBF-β", "format": "cell-based, human", "conditions": "for CBF-β levels: MDA-231, MDA-468 and MCF7 cells", "method": "(§1) Whole cell lysates extracted in RIPA buffer (Upstate) were separated on 4-12% gradient SDS-PAGE and transferred to nitrocellulose membrane. The blots were incubated with specific antibodies for each protein overnight at 4° C. After antibody washing, the blots were reacted with their respective secondary antibody and detected with enhanced chemiluminescence reagents (Millipore) according to the supplier's protocol. Antibodies for proteins were purchased as below. RUNX1, RUNX2, CBF-β, ubiquitin and caspase-3 (Cell Signaling Technologies), S451-p-RUNX2 (Bioss Gentaur, Belgium), RUNX3 and Glut-1 (Millipore, Calif.), β-actin and RUNX2 antibody for IHC (Sigma-Aldrich), and Ki-67 for IHC (Bethyl Laboratories, Inc, TX)."}, "COX-2 and NF-κb promoter": {"test_system": "COX-2 and NF-κb promoter", "test": "Luciferase reporter assay of promoters without Runt binding sequences", "format": "cell-based, human", "conditions": "MCF7-RUNX2 and MCF7-Empty cells, 0˜50 mM, 24 hrs", "method": "Cells were plated in 96-well plates (30,000 cells/well) and incubated overnight. Cells were co-transfected with indicated luciferase-reporter plasmids (25 ng/well) and pSV-Renilla-Luc (Promega) (15 ng/well) for 6 hrs and compound 1 ([…]) was further treated for 18-48 hrs. COX-2 (P2-274)-Luc (−170bp˜+104bp) and control plasmids (PXP2-Luc) were kindly provided byDr. Miguel A. Iñiguez (Universidad Autónoma de Madrid, Spain), and pNF-kb-Luc was from Dr. Hancai Dan (University of Maryland). Luciferase assay was performed using the Dual-Glo Luciferase Assay Systems as per manufacturer's recommendation (Promega)."}, "breast cancer cells [2]": {"test_system": "breast cancer cells", "test": "Cell growth assay (crystal violet)", "format": "cell-based, human", "conditions": "for inhibition at 50 µM: Homo sapiens, 72 hrs", "text": "Cells wereplated on 96-well (30,000 cells/well) or 24-well plates (50,000 cells/well). […] Cells were stained with crystal violet (0.5% in Methanol:Acetic Acid=3:1) and washed with PBS. Crystal violet was solubilized in DMSO and measured in a microplate reader at 592 nm."}, "RUNX2 [3]": {"biological_target": "RUNX2 (Homo sapiens, UniProt Q13950)", "sequence (Q13950 whole entry)": "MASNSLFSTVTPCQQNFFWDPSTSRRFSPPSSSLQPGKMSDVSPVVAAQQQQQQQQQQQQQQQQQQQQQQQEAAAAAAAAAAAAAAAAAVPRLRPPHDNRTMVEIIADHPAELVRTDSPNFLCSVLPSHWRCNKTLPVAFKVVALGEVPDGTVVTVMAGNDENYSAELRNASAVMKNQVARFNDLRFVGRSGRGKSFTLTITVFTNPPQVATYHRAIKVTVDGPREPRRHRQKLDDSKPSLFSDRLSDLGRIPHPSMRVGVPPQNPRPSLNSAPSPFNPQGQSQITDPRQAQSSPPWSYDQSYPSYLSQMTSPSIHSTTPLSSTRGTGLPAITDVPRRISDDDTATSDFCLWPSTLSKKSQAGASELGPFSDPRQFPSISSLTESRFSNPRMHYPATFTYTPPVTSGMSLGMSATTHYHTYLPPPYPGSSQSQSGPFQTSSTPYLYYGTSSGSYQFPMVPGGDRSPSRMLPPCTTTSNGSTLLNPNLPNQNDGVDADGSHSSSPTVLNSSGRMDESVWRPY", "test": "Western blot of RUNX2, RUNX1, CBF-β", "format": "cell-based", "set-up": "endogenous in cells; host or cells: MDA-231, MDA-468", "method": "as §1"}, "breast cancer cells [4]": {"test_system": "breast cancer cells", "test": "Caspase 3/7 assay", "format": "cell-based, human", "conditions": "50 μM, within 72 hrs", "method": "Cells were cultured in 96-well plates (30,000 cells/well). After compound 1 treatment for 24-72 hrs, cellular apoptosis was analyzed using the Caspase-Glo 3/7 Assay kit (Promega) according to the manufacturer's instructions."}, "TAZ": {"test_system": "TAZ", "test": "Nuclear TAZ levels by Western blot", "format": "cell-based, human", "method": "MCF7 cells were grown to subconfluence in the presence or absence of doxycycline for 72 hr in full media as described above. Cells were then treated in minimal DMEM (Sigma, D5030) containing 0.1% BSA, 1% L-glutamine, 2% Tet-Approved FBS, and 1 mM glucose for 16 hours followed by treatment with 2 ng/mL TGFβ (R&D Systems, 240-B-002) for 48 hours in the presence or absence of EGTA to examine sE-Cad expression levels, TAZ localization, and HER2 expression levels. Cells were washed with PBS and scraped from plates. Cytoplasmic and nuclear lysates were obtained using the Low/High Salt extraction method. Cytoplasmic extracts were obtained by resuspending cells in NP40 containing Hypotonic Buffer (10 mM HEPES pH 7.4, 1.5 mM MgCl2, 10 mM KCI, 0.5% NP40) followed by a 30 min incubation on ice and centrifiugation. Nuclear extracts were obtained by resuspending the nuclear pellet in an equal volume of low salt buffer (10 mM HEPES, 25% glycerol, 1.5 mM MgCl2, 20 mM KCI, 0.2 mM EDTA) followed by high salt buffer (10 mM HEPES, 25% glycerol, 1.5 mM MgCl2, 800 mM KCl, 0.2 mM EDTA) followed by vortexing, 30 min incubation on ice, another vortex, and centrifugation. Samples were resolved on 4-12% Bis-Tris polyacrylamide gradient gels (Invitrogen) and transferred to PVDF membranes (Millipore). Membranes were probed with antibodies listed below followed by development with enhanced ECL (Millipore). […] Protein levels were normalized to actin and quantified using NIH Image-J software.\nMCF7 Tet.OFF cells were pretreated in the absence or presence of doxycycline for 3 days. […] Nuclear and cytoplasmic extracts were obtained using High/Low salt extraction method and protein levels analyzed by Western blot (see above)."}, "PDH": {"test_system": "PDH", "test": "PDH enzymatic activity microtiter plate assay", "format": "cell-based, human", "conditions": "MDA-MB-468 and MCF7, 50 μM", "method": "In FIG. 23A PDH enzymatic activity was determined in doxycycline-responsive MCF7-tet-off (left) and Hs578t-Control or RUNX2 KD cells (right) or non-targeting control siRNA (NTC=RUNX2+) versus RUNX2 KD (55.5 cells=RUNX2 KD) using an antibody-specific microtiter plate assay. Results are expressed as the change in Absorbance at 450 nm per minute per mg protein (ΔmOD450/min/mg) (*p<0.05). In FIG. 23B PDH activity was determined in MDA-MB-468 (left) and MCF7 (right) BC cell lines with or without compound 1 treatment (50 μM) for the indicated time period."}}}
{"smiles": "O=C(O)C1C2C=CC(C2)C1C(=O)Nc1ccc(Cl)c(Cl)c1", "note": "(centres unmarked) [compound 1, 3-(N-(3,4-dichlorophenyl)carbamoyl)-5-norbornene-2-carboxylic acid]", "values": [{"measurement": "CBF-β levels", "setting": "RUNX2 [1]; 6 hrs", "result": "increased"}, {"measurement": "CBF-β levels", "setting": "RUNX2 [1]; after 24 hrs", "result": "decreased"}, {"measurement": "mRNA and protein expression of RUNX2", "setting": "RUNX2 [1]; T47D-RUNX2 and MCF7-RUNX2 cells, 50 μM, 72 hrs", "result": "further enhanced"}, {"measurement": "CBF-β level", "setting": "RUNX2 [1]; ectopic RUNX2 T47D and MCF7 cells, 50 μM, 72 hrs", "result": "reduced"}, {"measurement": "stability of RUNX1 or of CBF-β", "setting": "RUNX2 [1]; in the presence of CHX", "result": "not increased"}, {"measurement": "RUNX1 protein levels", "setting": "RUNX2 [1]; most BC cells", "result": "not altered"}, {"measurement": "COX-2 (P2-274)-Luc or pNF-κb-Luc promoter activities", "setting": "COX-2 and NF-κb promoter", "result": "no inhibitory effect"}, {"measurement": "inhibition in cell viability", "setting": "breast cancer cells [2]; 0˜100 μM, over 24 hrs", "result": "no significant inhibition"}, {"measurement": "cell growth inhibition", "setting": "breast cancer cells [2]; 0˜100 μM, over 72 hrs", "result": "dose- and time-dependent cell growth inhibition"}, {"measurement": "inhibition at 50 µM", "setting": "breast cancer cells [2]; MDA-MB-468 cells", "result": "> 50", "unit": "%"}, {"measurement": "inhibition at 50 µM", "setting": "breast cancer cells [2]; majority of TNBC and luminal type BC cells", "result": "< 50", "unit": "%"}, {"measurement": "cell proliferation relative to vehicle controls", "setting": "breast cancer cells [2]; ectopic RUNX2-expressing MCF7 and T47D cells, 7 days", "result": "dramatic decrease"}, {"measurement": "nuclear translocation of RUNX2 protein", "setting": "RUNX2 [3]", "result": "did not block or attenuate"}, {"measurement": "S451-p-RUNX2 levels", "setting": "RUNX2 [3]; Empty controls, MDA-468 and MCF7", "result": "clearly reduced"}, {"measurement": "RUNX2 protein stability", "setting": "RUNX2 [3]; MDA-468 and MDA-231 cells, cycloheximide, 50 μM", "result": "increased RUNX2 stability"}, {"measurement": "caspase-3/7 activity compared to vehicle controls", "setting": "breast cancer cells [4]", "result": "no change"}, {"measurement": "reduction in nuclear TAZ levels compared to vehicle", "setting": "TAZ; HCC1428 cells expressing endogenous RUNX2", "result": 80, "unit": "%"}, {"measurement": "nuclear TAZ levels", "setting": "TAZ; RUNX2 negative cells (doxycycline +), over 72 hr", "result": "no affect"}, {"measurement": "TAZ nuclear levels", "setting": "TAZ; RUNX2 positive MCF7 cells (doxycycline -), 50 μM, within 24 hr", "result": "lowered"}, {"measurement": "PDH activity", "setting": "PDH", "result": "increases PDH activity"}]}
